Measured values published in article PMC5447021, “TNF Lectin-Like Domain Restores Epithelial Sodium Channel Function in Frameshift Mutants Associated with Pseudohypoaldosteronism Type 1B” (Frontiers in Immunology, 2017).
Entries after “also recorded” stand apart in the source; their conditions may differ.

What was measured:
[1] = test system: A549 and H441 cells or HEK-293 cells heterologously expressing human ENaC; set-up: method as in PMID 24077967, PMID 25029038; conditions: cited from earlier work
β-ENaC = conditions: HEK-293, 5 and 10 min; cited from earlier work
[2] = test system: α-ENaC frameshift PHA1B mutants; assay: Whole-cell patch clamp, all α-ENaC PHA1B frameshift mutants + WT βγ; type: cell-based, human; conditions: for Restoration of current by solnatide (words): all 10 frameshift mutants, 200 nM solnatide (Figure 4B), n = 3–11
Protocol: Point mutations of α-, β-, γ- and δ-hENaC and PHA1B frameshift mutations of α-hENaC were prepared with the QuikChange Lightning Site-Directed Mutagenesis Kit (Agilent Technologies, CA, USA). Mutagenic primers were designed individually with the Primer Design Program provided on the producer’s website or for the frameshift mutations the same base changes as reported in patients (see Table 2) were performed. Primers were ordered from Sigma-Aldrich, Vienna, Austria.
HEK-293 cells were transfected 1 day after cell seeding using X-tremeGENE HP DNA transfection reagent (Roche Diagnostics, Mannheim, Germany) according to the manufacturer’s protocol. A set of WT or mutant αβγ- or δβγ-hENaC, or α-, β-, γ-, or δ-hENaC alone was used, and the ratio of DNA to transfection reagent was 1:3. The expression was highest 48–72 h after transfection.
Electrophysiological experiments were performed as described in detail by Shabbir et al. ([16]). […] Currents were recorded with the patch clamp method in the whole-cell mode. The chamber contained 1 ml of the bath solution of the following composition (in mM): 145 NaCl, 2.7 KCl, 1.8 CaCl2, 2 MgCl2, 5.5 glucose, and 10 HEPES, adjusted to pH 7.4 with 1 M NaOH solution. Micropipettes were pulled from thin-walled borosilicate glass capillaries (Harvard Apparatus, Holliston, MA, USA) with a DMZ Zeitz Puller to obtain electrode resistances ranging from 2 to 5 MΩ. The pipette solution contained (in millimolars): 135 potassium methane sulfonate, 10 KCl, 6 NaCl, 1 Mg2ATP, 2 Na3ATP, 10 HEPES, and 0.5 EGTA, adjusted to pH 7.2 with 1 M KOH solution. Chemicals for pipette and bathing solutions were supplied by Sigma-Aldrich (Vienna, Austria). Electrophysiological measurements were carried out with an Axopatch 200B patch clamp amplifier (Axon Instruments, CA, USA). Capacity transients were canceled, and series resistance was compensated. Whole-cell currents were filtered at 5 kHz and sampled at 10 kHz. Data acquisition and storage were processed directly to a PC equipped with pCLAMP 10.2 software (Axon Instruments, CA, USA). […]

αI68fs = assay: Membrane abundance of αI68fs; type: cell-based, human; conditions: 200 nM, relative to WT control (=1)
Protocol: (§1) Cell surface biotinylation was performed as previously described ([26]). In brief, A549 cells or transiently transfected HEK-293 cells were grown in 10 cm dishes in 37°C, 5% CO2 incubator in DMEM medium supplemented with 5% FBS. […] Medium was aspirated, and then cells were washed twice with 10 ml ice-cold phosphate-buffered saline (PBS), covered with 2.5 mg EZ-Link Sulfo-NHS-SS-Biotin (Thermo Scientific, Rockford, USA), dissolved in 10 ml ice-cold PBS, and incubated at 4°C with gentle agitation for 30 min. Fifty milliliters of quenching solution were added to cells; then cells were scraped in solution and transferred to fresh 50 ml tube. Cell suspension was centrifuged at 500 × g for 3 min. Supernatant was discarded, and 5 ml of Tris-buffered saline (TBS) was added to the cell pellet. The cell pellet was resuspended and centrifuged at 500 × g for 3 min. Supernatant was discarded and cell pellet was resuspended in lysis buffer containing protease inhibitor cocktail (10 µM pepstatin A, 10 µM phenylmethylsulfonyl fluoride, and 10 µM leupeptin) and transferred to fresh 1.5 ml centrifuge tube. Cell pellet was then homogenized on ice by ultrasonication using 1 s bursts and incubated on ice for at least 30 min. Intact cells and nuclei were pelleted by centrifugation at 10,000 × g for 2 min under cooling conditions. […] Exposed films were scanned and quantified using ImageJ (NIH, MD, USA). […]

αS452fs = assay: Membrane abundance of αS452fs; type: cell-based, human; conditions: 200 nM, relative to WT control (=1), own control 1.11 ± 0.25, p < 0.001 vs control
Protocol: as §1

## C[C@@H]1NC(=O)CNC(=O)[C@H](CCC(=O)O)NC(=O)[C@@H]2CCCN2C(=O)[C@H]([C@@H](C)O)NC(=O)[C@H](CCC(=O)O)NC(=O)[C@H](CCCNC(=N)N)NC(=O)[C@H](CCC(N)=O)NC(=O)CNC(=O)[C@@H](N)CSSC[C@@H](C(=O)O)NC(=O)[C@H](Cc2ccc(O)cc2)NC(=O)[C@H](Cc2c[nH]c3ccccc23)NC(=O)[C@@H]2CCCN2C(=O)[C@H](CCCCN)NC(=O)[C@H](C)NC(=O)[C@H](CCC(=O)O)NC1=O [solnatide, L-cysteine, L-cysteinylglycyl-L-glutaminyl-L-arginyl-L-α-glutamyl-L-threonyl-L-prolyl-L-α-glutamylglycyl-L-alanyl-L-α-glutamyl-L-alanyl-L-lysyl-L-prolyl-L-tryptophyl-L-tyrosyl-, cyclic (1→17)-disulfide]
[1]
  Na^+ current-enhancing effect after PNGase F: Elimination of the Na^+ current-enhancing effect
β-ENaC
  Membrane abundance, solnatide: only slight
[2]
  Restoration of current by solnatide (words): up to or even higher than WT control current in absence of solnatide; also recorded: restored the amiloride-sensitive current in all these frameshift mutants to WT or higher levels
[2]; listed as Solnatide
  Restoration of current by solnatide (words): restored function in α-ENaC frameshift mutants to current density levels of wild type ENaC or higher
[2]; solnatide, frameshift mutants, HEK-293
  Concentration at which maximum current activation was reached: 200 nM
αI68fs; 5 min, own control 0.15 ± 0.06, p < 0.05 vs control
  Membrane abundance, solnatide 5 min: 0.25 ± 0.07
αI68fs; 10 min, own control 0.15 ± 0.06, p < 0.01 vs control
  Membrane abundance, solnatide 10 min: 0.32 ± 0.11
αS452fs; 5 min
  Membrane abundance, solnatide 5 min: 1.36 ± 0.11
αS452fs; 10 min
  Membrane abundance, solnatide 10 min: 1.94 ± 0.08
